The results in this text go back to ChEMBL document CHEMBL6103546, “TRPM8 and TRPA1 ideal targets for treating cold-induced pain” (Eur J Med Chem, 2025).

Assay [1] concerns the target T1, Transient receptor potential cation channel subfamily A member 1 (Homo sapiens, UniProt O75762). Put plainly: Antagonist activity at TRPA1 (unknown origin) transfected in HEK293F cells assessed as reduction in intracellular Ca2+ by fluorescence based assay. The class given is cell-based.
For assay [2], the target named is T1, Transient receptor potential cation channel subfamily A member 1. Put plainly: […] at human TRPA1 expressed in HEK293T cells assessed as inhibition of AITC-induced current by whole cell patch clamp analysis. The format is cell-based. On the technique in general: Patch clamp records ionic current or voltage across a cell membrane.
Assay [3] shares this target. Put plainly: Antagonist activity at TRPA1 (unknown origin) expressed in HEK293 cells assessed as inhibition of AITC-induced intracellular Ca2+ flux by fluorescence dye based assay. The format is cell-based. On the technique in general: A change in cytosolic calcium serves as a functional read-out for many receptors and channels.
The target is the same in assay [4]. As to the kind of experiment: Antagonist activity at human TRPA1 expressed in CHO cells assessed as inhibition of AITC-induced intracellular Ca2+ flux by fluorescence dye based assay. The class given is cell-based.
The target is the same in assay [5]. As to the kind of experiment: Antagonist activity at recombinant TRPA1 (unknown origin) expressed in T-REx-293 cells assessed as inhibition of AITC-induced intracellular Ca2+ flux by patch clamp assay. The format is cell-based.
In assay [6] the target is T2, Transient receptor potential cation channel subfamily M member 8 (Homo sapiens, UniProt Q7Z2W7). As to the kind of experiment: Antagonist activity at TRPM8 (unknown origin).
The target in assay [7] is T2, Transient receptor potential cation channel subfamily M member 8. As to the kind of experiment: Antagonist activity at human recombinant TRPM8 stably transfected in HEK293 cells assessed as inhibition of intracellular Ca2+ flux incubated for 60 mins by Fluo-4 dye based fluorescence assay. The class given is cell-based.
The target is the same in assay [8]. As to the kind of experiment: Antagonist activity at human TRPM8 expressed in HEK293 cells. The format is cell-based.
Assay [9] has the same target. Put plainly: Antagonist activity at human TRPM8 transfected in HEK293T cells assessed as inhibition of intracellular Ca2+ level by Fluo-4 dye based fluorescence assay. The class given is cell-based.
Assay [10] has as its target Transient receptor potential cation channel subfamily M member 8 (Rattus norvegicus, UniProt Q8R455). Put plainly: Antagonist activity at rat TRPM8 transfected in HEK293T cells assessed as reduction in intracellular Ca2+ level Fluo-4 dye based fluorescence assay. The class given is cell-based.
The target in assay [11] is T2, Transient receptor potential cation channel subfamily M member 8. Put plainly: Agonist activity at TRPM8 (unknown origin).
Assay [12] has the same target. Put plainly: Antagonist activity at TRPM8 (unknown origin) in HEK293T cells. The class given is cell-based.

Molecules are shown by their SMILES.

As usually defined, the EC50 is the midpoint of the concentration-response curve. For orientation: IC50 means the concentration that gives 50% inhibition.

T1 sequence (O75762 whole entry): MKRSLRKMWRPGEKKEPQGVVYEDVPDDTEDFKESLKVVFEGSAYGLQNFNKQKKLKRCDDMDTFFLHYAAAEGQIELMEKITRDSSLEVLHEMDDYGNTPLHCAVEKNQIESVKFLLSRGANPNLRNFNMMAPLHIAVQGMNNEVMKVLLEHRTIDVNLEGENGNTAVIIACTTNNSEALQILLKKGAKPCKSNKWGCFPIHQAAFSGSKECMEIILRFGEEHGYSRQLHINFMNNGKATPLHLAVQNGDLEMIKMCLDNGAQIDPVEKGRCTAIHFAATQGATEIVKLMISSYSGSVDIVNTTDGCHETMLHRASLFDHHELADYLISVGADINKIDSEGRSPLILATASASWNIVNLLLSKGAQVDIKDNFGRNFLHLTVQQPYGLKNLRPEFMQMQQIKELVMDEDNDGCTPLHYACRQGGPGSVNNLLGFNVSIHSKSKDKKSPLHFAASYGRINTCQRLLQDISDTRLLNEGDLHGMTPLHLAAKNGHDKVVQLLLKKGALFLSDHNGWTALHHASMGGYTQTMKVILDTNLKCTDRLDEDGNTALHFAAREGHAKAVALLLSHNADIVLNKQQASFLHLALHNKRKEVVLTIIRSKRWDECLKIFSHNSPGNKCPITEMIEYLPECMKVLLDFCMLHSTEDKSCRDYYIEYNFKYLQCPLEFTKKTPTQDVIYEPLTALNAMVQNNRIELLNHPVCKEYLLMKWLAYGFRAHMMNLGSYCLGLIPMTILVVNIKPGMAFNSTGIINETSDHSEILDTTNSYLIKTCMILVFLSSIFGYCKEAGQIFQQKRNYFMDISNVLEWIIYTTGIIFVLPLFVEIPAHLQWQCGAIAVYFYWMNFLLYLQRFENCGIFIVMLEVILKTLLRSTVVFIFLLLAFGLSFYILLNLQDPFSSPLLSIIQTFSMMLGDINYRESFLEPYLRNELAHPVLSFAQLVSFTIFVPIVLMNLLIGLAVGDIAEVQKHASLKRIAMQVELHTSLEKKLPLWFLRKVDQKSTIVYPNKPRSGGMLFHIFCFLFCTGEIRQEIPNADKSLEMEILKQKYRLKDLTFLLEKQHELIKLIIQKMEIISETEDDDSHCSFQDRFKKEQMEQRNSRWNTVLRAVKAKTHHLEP
T2 sequence (Q7Z2W7 whole entry): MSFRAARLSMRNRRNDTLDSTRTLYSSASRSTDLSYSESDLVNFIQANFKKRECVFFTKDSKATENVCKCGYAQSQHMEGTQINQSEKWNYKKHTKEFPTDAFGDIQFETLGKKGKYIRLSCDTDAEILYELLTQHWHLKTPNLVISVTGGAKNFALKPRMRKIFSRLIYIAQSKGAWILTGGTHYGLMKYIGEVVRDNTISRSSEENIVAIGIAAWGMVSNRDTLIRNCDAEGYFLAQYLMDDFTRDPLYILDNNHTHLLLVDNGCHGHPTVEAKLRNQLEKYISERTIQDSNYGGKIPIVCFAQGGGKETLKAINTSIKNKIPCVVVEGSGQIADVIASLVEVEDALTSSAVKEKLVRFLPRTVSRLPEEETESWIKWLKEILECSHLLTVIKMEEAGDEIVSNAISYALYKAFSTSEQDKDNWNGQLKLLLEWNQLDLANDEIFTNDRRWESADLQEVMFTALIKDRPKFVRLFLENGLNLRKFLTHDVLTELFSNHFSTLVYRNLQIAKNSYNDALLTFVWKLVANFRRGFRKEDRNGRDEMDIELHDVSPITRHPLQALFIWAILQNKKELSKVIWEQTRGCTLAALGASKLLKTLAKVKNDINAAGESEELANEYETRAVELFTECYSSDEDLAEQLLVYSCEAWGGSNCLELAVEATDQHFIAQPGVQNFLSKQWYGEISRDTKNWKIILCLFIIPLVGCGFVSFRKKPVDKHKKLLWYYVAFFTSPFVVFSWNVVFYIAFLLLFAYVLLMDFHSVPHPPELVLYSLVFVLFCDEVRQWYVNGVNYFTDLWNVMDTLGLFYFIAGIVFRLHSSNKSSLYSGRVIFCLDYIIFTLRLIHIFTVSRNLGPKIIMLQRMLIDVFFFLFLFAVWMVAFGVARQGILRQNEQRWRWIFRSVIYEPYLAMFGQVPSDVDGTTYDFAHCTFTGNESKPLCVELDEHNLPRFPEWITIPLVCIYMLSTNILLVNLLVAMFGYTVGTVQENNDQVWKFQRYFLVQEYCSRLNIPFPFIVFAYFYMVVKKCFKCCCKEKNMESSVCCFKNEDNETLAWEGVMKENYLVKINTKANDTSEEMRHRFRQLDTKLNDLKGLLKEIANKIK
Transient receptor potential cation channel subfamily M member 8 (Rattus norvegicus, UniProt Q8R455), sequence (Q8R455 whole entry): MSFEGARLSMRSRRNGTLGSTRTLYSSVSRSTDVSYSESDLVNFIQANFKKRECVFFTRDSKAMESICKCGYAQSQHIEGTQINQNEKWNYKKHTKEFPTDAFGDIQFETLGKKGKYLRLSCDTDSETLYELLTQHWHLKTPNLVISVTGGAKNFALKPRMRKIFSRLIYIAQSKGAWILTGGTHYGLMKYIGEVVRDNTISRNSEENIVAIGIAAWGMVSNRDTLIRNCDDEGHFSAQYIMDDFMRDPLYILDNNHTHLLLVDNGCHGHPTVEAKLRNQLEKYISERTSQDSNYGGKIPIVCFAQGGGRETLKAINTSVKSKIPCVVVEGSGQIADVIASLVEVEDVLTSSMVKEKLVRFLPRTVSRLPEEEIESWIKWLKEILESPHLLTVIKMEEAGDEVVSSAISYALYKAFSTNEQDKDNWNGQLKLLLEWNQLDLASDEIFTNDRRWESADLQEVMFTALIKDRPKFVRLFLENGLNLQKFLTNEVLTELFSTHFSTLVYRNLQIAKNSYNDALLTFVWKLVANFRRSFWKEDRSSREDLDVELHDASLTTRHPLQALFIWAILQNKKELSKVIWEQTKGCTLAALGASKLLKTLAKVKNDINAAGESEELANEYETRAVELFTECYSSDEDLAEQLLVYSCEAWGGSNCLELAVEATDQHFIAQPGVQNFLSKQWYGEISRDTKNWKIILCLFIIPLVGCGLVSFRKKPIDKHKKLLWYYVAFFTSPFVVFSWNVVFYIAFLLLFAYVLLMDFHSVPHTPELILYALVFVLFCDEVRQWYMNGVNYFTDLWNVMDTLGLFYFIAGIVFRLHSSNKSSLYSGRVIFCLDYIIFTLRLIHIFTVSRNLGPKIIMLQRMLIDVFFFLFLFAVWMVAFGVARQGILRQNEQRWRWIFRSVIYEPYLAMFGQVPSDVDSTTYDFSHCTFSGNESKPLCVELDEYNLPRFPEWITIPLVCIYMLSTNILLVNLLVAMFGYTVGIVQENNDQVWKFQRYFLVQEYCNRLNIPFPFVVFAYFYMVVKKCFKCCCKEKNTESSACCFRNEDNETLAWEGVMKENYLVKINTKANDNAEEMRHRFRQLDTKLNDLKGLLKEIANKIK

For the compound `COc1ccc(OC)c(NC(=O)c2nnn(Cc3ccc(Br)cc3F)c2N)c1`, the EC50 in assay [1] turned out to be 45 nM. In the case of `C[n+]1cc2c3c(ccc2c2ccc4cc5c(cc4c21)OCO5)OCO3`, the EC50 in assay [2] was 40 nM. Consider `C[C@@H](N)[C@@H](O)CCCCCCCCCCCCCCCCCCCCCCCC[C@H](O)[C@@H](C)N`, for which the EC50 in assay [3] was 2600 nM. Turning to `C[C@H]1[C@H](F)C[C@@H](C(=O)NCc2cc(-c3cnc(C(F)(F)F)nc3)ncc2C(F)(F)F)N1S(=O)(=O)c1ccc(F)cc1`, the IC50 in [4] stood at 1.7 nM. As for `CCN(c1cccc(C)c1)S(=O)(=O)c1nnc(NC(=O)c2ccccc2)s1`, in assay [5], the IC50 is 130 nM. For `C[C@@H]1C(=O)N(C[C@@H](Cc2ccccc2)N(Cc2ccccc2)Cc2ccccc2)[C@]1(Cc1ccccc1)C(=O)OCc1ccccc1`, the IC50 in [6] and in [7] was 300 nM each time. As for `C[C@H]1C(=O)N(C[C@@H](Cc2ccccc2)N(Cc2ccccc2)Cc2ccccc2)[C@@]1(Cc1ccccc1)C(=O)OCc1ccccc1`, the values for the IC50 in assay [6], in assay [7] and in assay [8] were 20 nM, 20 nM and 50 nM, respectively. Consider `C[C@H]1C(=O)N(C[C@H](Cc2ccccc2)N(Cc2ccccc2)Cc2ccccc2)[C@@]1(Cc1ccccc1)C(=O)OCc1ccccc1`, for which it took 700 nM to reach half-maximal inhibition in assay [6] (IC50). Consider `O=C(N[C@H](Cn1nccn1)C(F)(F)CO)c1cccc(F)c1-c1cc(-c2ccc(F)cc2)[nH]n1`, for which the IC50 amounted to 25.3 nM in assay [9] and 22.4 nM in assay [10]. Regarding `C[C@@H]1C(=O)N(C[C@H](Cc2ccccc2)N(Cc2ccccc2)Cc2ccccc2)[C@]1(Cc1ccccc1)C(=O)OCc1ccccc1`, inhibition in assay [6] was half-maximal at 3100 nM (IC50).

On to `O=C1NC(c2cccc([N+](=O)[O-])c2)=CCN1c1ccccc1O` [ICILLIN], for which the EC50 in [11] is 5 nM. Compound `c1cc2c(cc1[C@H]1OC[C@H]3[C@@H]1CO[C@@H]3c1ccc3c(c1)OCO3)OCO2` [SESAMIN] registered an IC50 in assay [12] of 9780 nM.
